Laboratory results: the supplement of paper PMC10307832

Legend:
Assay in all cases: relative viability (nuclei count vs DMSO), 5 days (fraction); higher = more cells survive
[1] = compound: Cc1ccc(C(=O)N(CCCN)[C@@H](c2nc3cc(Cl)ccc3c(=O)n2Cc2ccccc2)C(C)C)cc1 [Ispinesib] + C[C@@H](Oc1cc(-c2cnn(C3CCNCC3)c2)cnc1N)c1c(Cl)ccc(F)c1Cl [Crizotinib] (partner 1 µM)
Summary of the method: (§1)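 Relative viability equals treated-well nuclei counts divided by vehicle-well nuclei counts. Counts came from 4× images of lung cancer cell lines grown in 1536-well plates for 5 days after pin-tool dosing on the day after seeding. Dosing used one drug alone or a fixed anchor-drug dose plus five library-drug doses (not always all listed) in √10 steps, and values are medians of duplicate plates.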

[2] = compound: C[C@]1(O)C[C@@H](c2nc(-c3ccc4ccc(-c5ccccc5)nc4c3)c3c(N)nccn32)C1 [Linsitinib] + Nc1nc2[nH]cc(CCc3ccc(C(=O)N[C@@H](CCC(=O)O)C(=O)O)cc3)c2c(=O)[nH]1 [Pemetrexed] (partner 0.2 µM)
Summary of the method: as §1

[3] = compound: Cc1ccc(C(=O)N(CCCN)[C@@H](c2nc3cc(Cl)ccc3c(=O)n2Cc2ccccc2)C(C)C)cc1 [Ispinesib] + CCNC(=O)c1noc(-c2cc(C(C)C)c(O)cc2O)c1-c1ccc(CN2CCOCC2)cc1 [Luminespib] (partner 0.01 µM)
Summary of the method: as §1

[4] = compound: C[C@]1(O)C[C@@H](c2nc(-c3ccc4ccc(-c5ccccc5)nc4c3)c3c(N)nccn32)C1 [Linsitinib] + Cc1nc(Nc2ncc(C(=O)Nc3c(C)cccc3Cl)s2)cc(N2CCN(CCO)CC2)n1 [Dasatinib] (partner 0.075 µM)
Summary of the method: as §1

Cell Line | relative viability ([1]; first compound 0.001 µM) | relative viability ([1]; first compound 0.003162 µM) | relative viability ([1]; first compound 0.01 µM) | relative viability ([1]; first compound 0.03162 µM) | relative viability ([1]; first compound 0.1 µM) | relative viability ([2]; first compound 0.01 µM) | relative viability ([2]; first compound 0.03162 µM) | relative viability ([2]; first compound 0.1 µM) | relative viability ([2]; first compound 1 µM) | relative viability ([3]; first compound 0.001 µM) | relative viability ([3]; first compound 0.003162 µM) | relative viability ([3]; first compound 0.01 µM) | relative viability ([3]; first compound 0.03162 µM) | relative viability ([3]; first compound 0.1 µM) | relative viability ([4]; first compound 0.01 µM) | relative viability ([4]; first compound 0.03162 µM) | relative viability ([4]; first compound 0.1 µM) | relative viability ([4]; first compound 1 µM) | relative viability ([2]; first compound 0.3162 µM) | relative viability ([4]; first compound 0.3162 µM)
HOP-62 | 0.966 | 1.04 | 0.792 | 0.976 | 0.918 | 0.325 | 0.251 | 0.311 | 0.281 | 0.899 | 1.02 | 0.93 | 0.794 | 0.814 | 0.65 | 0.692 | 0.643 | 0.565 |  | 
HCC-15 | 0.892 | 0.976 | 0.97 | 0.489 | 0.15 | 0.215 | 0.199 | 0.209 | 0.213 | 0.286 | 0.322 | 0.459 | 0.229 | 0.227 | 0.62 | 0.559 | 0.519 | 0.35 | 0.191 | 
HARA | 1.33 | 1.18 | 1.24 | 1.06 | 0.188 | 0.258 | 0.198 | 0.22 | 0.239 | 1.12 | 0.617 | 0.788 | 0.64 | 0.233 | 0.278 | 0.213 | 0.294 | 0.204 |  | 
SK-MES-1 | 1.07 | 1 | 1.11 | 0.751 | 0.284 | 0.991 | 0.795 | 0.958 | 0.753 | 0.954 | 0.691 | 0.966 | 0.203 | 0.221 | 0.297 | 0.351 | 0.257 | 0.289 | 0.784 | 0.323
NCI-H1355 | 1.13 | 1.19 | 1.29 | 1.15 | 0.451 | 1.11 | 0.759 | 0.945 | 0.637 | 0.702 | 0.729 | 0.881 | 0.598 | 0.488 | 0.627 | 0.68 | 0.518 | 0.254 | 0.798 | 0.525
NCI-H520 | 0.783 | 0.631 | 0.781 | 0.346 | 0.438 | 0.623 | 0.377 | 0.762 | 0.598 | 0.24 | 0.17 | 0.207 | 0.206 | 0.204 | 0.191 | 0.192 | 0.2 | 0.195 |  | 
NCI-H838 | 0.955 | 0.901 | 1.22 | 0.725 | 0.285 | 0.252 | 0.209 | 0.256 | 0.212 | 0.302 | 0.325 | 0.278 | 0.322 | 0.268 | 0.273 | 0.258 | 0.267 | 0.225 | 0.214 | 0.227
LK-2 | 0.169 | 0.269 | 0.213 | 0.21 | 0.333 | 0.123 | 0.285 | 0.148 | 0.153 | 0.186 | 0.174 | 0.226 | 0.224 | 0.202 | 0.281 | 0.328 | 0.212 | 0.197 | 0.215 | 0.228
